Measured values from US12338262B2 (Forward Therapeutics, Inc., priority 2022, dated 2025).

Target: TNF-α (Homo sapiens, UniProt P01375)
Test: TNF-α Induced HEK Blue Cellular Assay
Assay type: cell-based
Settings: HEK Blue TNFα reporter cells, TNF-α 100 pg/ml, 24 hrs at 37° C., secreted alkaline phosphatase (QUANTI-Blue, 620 nm)
Outline: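 HEK Blue TNFα reporter cells (10,000/well, DMEM + 10% FBS) treated with compound ([…] to 0.5 nM final) and stimulated with 100 pg/ml TNF-α for 24 h at 37 °C. Secreted alkaline phosphatase read with QUANTI-Blue at 620 nm; IC50 by 4-parameter logistic fit after background correction to stimulated/unstimulated DMSO controls.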

Chain of TNF-α (P01375 77-233 limits assumed): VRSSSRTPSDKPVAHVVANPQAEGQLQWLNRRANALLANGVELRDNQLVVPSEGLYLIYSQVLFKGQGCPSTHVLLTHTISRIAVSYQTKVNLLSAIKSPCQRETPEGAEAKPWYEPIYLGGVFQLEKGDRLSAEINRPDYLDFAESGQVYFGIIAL

IC50: ≤ 1000 nM
SMILES: Cc1nc2cc(F)c(-c3ccc(P(C)(C)=O)nc3)nc2c(N[C@H](C)c2cc(C3CC3)ccc2F)c1Cl [Example 150, 3-chloro-N-[(1R)-1-(5-cyclopropyl-2-fluorophenyl)ethyl]-6-[6-(dimethylphosphoryl)pyridin-3-yl]-7-fluoro-2-methyl-1,5-naphthyridin-4-amine]
